Consider 33 compounds from patent publication US11591336B2 (Relay Therapeutics, Inc., priority 2017, dated 2023).

Counter-ions that a name gives are not always drawn.

This assay deals with SHP2 (Homo sapiens (Human), UniProt Q06124). As to the kind of experiment: SHP2 Allosteric Inhibition Assay (DiFMUP prompt fluorescence). In kind it is biochemical. Particulars: 0.25 nM SHP2 activated with 0.5 μM peptide IRS1_pY1172(dPEG8)pY1222; substrate DiFMUP 100 μM; 25° C.
Chain of SHP2 (Q06124 whole entry): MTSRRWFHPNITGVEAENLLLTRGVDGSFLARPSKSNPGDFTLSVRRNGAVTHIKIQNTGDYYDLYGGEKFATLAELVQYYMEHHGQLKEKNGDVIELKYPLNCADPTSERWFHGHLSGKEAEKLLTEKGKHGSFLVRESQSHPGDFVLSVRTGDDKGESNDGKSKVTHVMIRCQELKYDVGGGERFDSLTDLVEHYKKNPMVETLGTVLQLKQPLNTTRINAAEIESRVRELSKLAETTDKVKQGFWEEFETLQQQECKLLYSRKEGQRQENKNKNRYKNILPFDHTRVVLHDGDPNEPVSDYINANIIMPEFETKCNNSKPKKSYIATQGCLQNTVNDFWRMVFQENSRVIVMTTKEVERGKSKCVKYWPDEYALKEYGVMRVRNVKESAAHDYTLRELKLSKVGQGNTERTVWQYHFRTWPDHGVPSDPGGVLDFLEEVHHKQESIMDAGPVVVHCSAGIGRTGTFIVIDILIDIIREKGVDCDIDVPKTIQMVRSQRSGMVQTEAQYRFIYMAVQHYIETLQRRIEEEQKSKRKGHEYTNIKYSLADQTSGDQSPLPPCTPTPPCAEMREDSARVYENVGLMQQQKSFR

By IC50 is commonly meant the point on the concentration scale where inhibition reaches its midpoint. A low value points to inhibition by little substance. Compound `C[C@@H]1C[C@H](O)CCN1c1cnc2c(N3CCCc4ncccc43)n[nH]c2n1` (racemic) [Compound 95, (2R,4R)-1-(3-(3,4-dihydro-1,5-naphthyridin-1(2H)-yl)-1H-pyrazolo[3,4-b]pyrazin-6-yl)-2-methylpiperidin-4-ol] gave an IC50 of at least 10000 nM. As for `C[C@@H]1C[C@@H](CN)CCN1c1cnc2c(N3CCCc4ncccc43)n[nH]c2n1` (racemic) [Compound 104, ((2R,4S)-1-(3-(3,4-dihydro-1,5-naphthyridin-1(2H)-yl)-1H-pyrazolo[3,4-b]pyrazin-6-yl)-2-methylpiperidin-4-yl)methanamine], the IC50 is under 1000 nM. The same measure for `C[C@@H]1C[C@H](CN)CCN1c1cnc2c(N3CCCc4ncccc43)n[nH]c2n1` (racemic) [Compound 109, ((2R,4R)-1-(3-(3,4-dihydro-1,5-naphthyridin-1(2H)-yl)-1H-pyrazolo[3,4-b]pyrazin-6-yl)-2-methylpiperidin-4-yl)methanamine]: 1000 to 10000 nM; for `NC[C@H]1CCN(c2cnc3c(N4CCCc5ncccc54)n[nH]c3n2)[C@H](Cc2ccccc2)C1` (racemic) [Compound 158]: at least 10000 nM; for `NC[C@H]1CCN(c2cnc3c(N4CCCc5ncccc54)n[nH]c3n2)[C@@H](Cc2ccccc2)C1` (racemic) [Compound 159]: 1000 to 10000 nM.

Regarding `N[C@@H]1CCC[C@@]12CCN(c1cnc3c(N4CCCc5ncccc54)n[nH]c3n1)C2` (relative stereo) [Compound 206, rel-(5S,6R)-2-(3-(3,4-dihydro-1,5-naphthyridin-1(2H)-yl)-1H-pyrazolo[3,4-b]pyrazin-6-yl)-2-azaspiro[4.4]nonan-6-amine], the IC50 is 1000 to 10000 nM. The compound `C[C@@H]1CCN(c2n[nH]c3nc(N4CCC5(CC4)CO[C@@H](C)[C@H]5N)cnc23)c2ccc(-c3ncc[nH]3)nc21` (relative stereo) [Compound 448, (3S,4S)-8-{3-[(4R*)-6-(1H-imidazol-2-yl)-4-methyl-1,2,3,4-tetrahydro-1,5-naphthyridin-1-yl]-1H-pyrazolo[3,4-b]pyrazin-6-yl)-3-methyl-2-oxa-8-azaspiro[4.5]decan-4-amine hydrochloride] returned a concentration for half-maximal inhibition (IC50) of under 1000 nM. The compound `C[C@@H]1OCC2(CCN(c3cnc4c(N5CC[C@H](C)c6nc(-c7ncc[nH]7)ccc65)n[nH]c4n3)CC2)[C@@H]1N` (relative stereo) [Compound 449, (3S,4S)-8-{3-[(4R*)-6-(1H-imidazol-2-yl)-4-methyl-1,2,3,4-tetrahydro-1,5-naphthyridin-1-yl]-1H-pyrazolo[3,4-b]pyrazin-6-yl)-3-methyl-2-oxa-8-azaspiro[4.5]decan-4-amine hydrochloride] gave a half-inhibitory concentration (IC50) of under 1000 nM. In turn, `C[C@@H]1CCN(c2n[nH]c3nc(N4CCC5(CC4)CO[C@@H](C)[C@H]5N)cnc23)c2ccc(-c3noc(=O)[nH]3)nc21` (relative stereo) [Compound 450, 3-[(8R*)-5-{6-[(3S,4S)-4-amino-3-methyl-2-oxa-8-azaspiro[4.5]decan-8-yl]-1H-pyrazolo[3,4-b]pyrazin-3-yl}-8-methyl-5,6,7,8-tetrahydro-1,5-naphthyridin-2-yl]-4,5-dihydro-1,2,4-oxadiazol-5-one] had an IC50 of under 1000 nM. In turn, `C[C@@H]1OCC2(CCN(c3cnc4c(N5CC[C@H](C)c6nc(-c7noc(=O)[nH]7)ccc65)n[nH]c4n3)CC2)[C@@H]1N` (relative stereo) [Compound 451, 3-[(8R*)-5-{6-[(3S,4S)-4-amino-3-methyl-2-oxa-8-azaspiro[4.5]decan-8-yl]-1H-pyrazolo[3,4-b]pyrazin-3-yl}-8-methyl-5,6,7,8-tetrahydro-1,5-naphthyridin-2-yl]-4,5-dihydro-1,2,4-oxadiazol-5-one] showed an IC50 of under 1000 nM. The same measure for `CCC1CCN(c2n[nH]c3nc(N4CCC(C)(CN)CC4)cnc23)c2ccccc21` (single isomer, unassigned) [Compound 102, hydrochloride]: under 1000 nM; for `CCC1CCN(c2n[nH]c3nc(N4CCC(C)(CN)CC4)cnc23)c2ccccc21` (single isomer, unassigned) [Compound 103, hydrochloride]: under 1000 nM. The same measure for `C[C@H](N)C1(C)CCN(c2cnc3c(N4CCCc5ncccc54)n[nH]c3n2)CC1` (single isomer, unassigned) [Compound 110]: under 1000 nM; for `C[C@@H](N)C1(C)CCN(c2cnc3c(N4CCCc5ncccc54)n[nH]c3n2)CC1` (single isomer, unassigned) [Compound 111]: under 1000 nM.

As for `C[C@@H]1CCN(c2n[nH]c3nc(N4CCC(C)(CN)CC4)cnc23)c2ccc(C#N)cc21` (single isomer, unassigned) [Compound 115], the IC50 was under 1000 nM. The same measure for `C[C@H]1CCN(c2n[nH]c3nc(N4CCC(C)(CN)CC4)cnc23)c2ccc(C#N)cc21` (single isomer, unassigned) [Compound 116]: under 1000 nM.

The compound `CC1CCN(c2n[nH]c3nc(N4CCC(C)(CN)CC4)cnc23)c2cccnc21` (single isomer, unassigned) [Compound 128] returned an IC50 of under 1000 nM. The same measure for `C[C@@H]1CCN(c2n[nH]c3nc(N4CCC(C)(CN)CC4)cnc23)c2ccc(-c3nccs3)nc21` (single isomer, unassigned) [Compound 196, hydrochloride]: under 1000 nM; for `C[C@H]1CCN(c2n[nH]c3nc(N4CCC(C)(CN)CC4)cnc23)c2ccc(-c3nccs3)nc21` (single isomer, unassigned) [Compound 197, hydrochloride]: under 1000 nM. On to `C[C@@H]1CCN(c2n[nH]c3nc(N4CCC5(CC4)CO[C@@H](C)[C@H]5N)cnc23)c2ccc(C#N)c(F)c21` (single isomer, unassigned) [Compound 229], for which the IC50 is under 1000 nM.

On to `C[C@@H]1OCC2(CCN(c3cnc4c(N5CC[C@H](C)c6c5ccc(C#N)c6F)n[nH]c4n3)CC2)[C@@H]1N` (single isomer, unassigned) [Compound 230], for which the IC50 was under 1000 nM.

For the compound `C[C@@H]1CCN(c2n[nH]c3nc(N4CCC5(CC4)CO[C@@H](C)[C@H]5N)cnc23)c2cc(F)cnc21` (single isomer, unassigned) [Compound 262, hydrochloride], the IC50 is under 1000 nM. Under `C[C@@H]1OCC2(CCN(c3cnc4c(N5CC[C@H](C)c6ncc(F)cc65)n[nH]c4n3)CC2)[C@@H]1N` (single isomer, unassigned) [Compound 263, hydrochloride] stands under 1000 nM; under `C[C@@H]1OCC2(CCN(c3cnc4c(N5CC[C@H](C)c6nc(-c7ncon7)ccc65)n[nH]c4n3)CC2)[C@@H]1N` (single isomer, unassigned) [Compound 370], under 1000 nM. The same measure for `C[C@@H]1CCN(c2n[nH]c3nc(N4CCC5(CC4)CO[C@@H](C)[C@H]5N)cnc23)c2ccc(-c3ncon3)nc21` (single isomer, unassigned) [Compound 371]: under 1000 nM. Under `C[C@@H]1C[C@@H](N)CCN1c1cnc2c(N3CCCc4ncccc43)n[nH]c2n1` (stereo in doubt) [Compound 24, rel-(2R,4S)-1-(3-(3,4-Dihydro-1,5-naphthyridin-1(2H)-yl)-1H-pyrazolo[3,4-b]pyrazin-6-yl)-2-methylpiperidin-4-amine] stands under 1000 nM. Compound `C[C@H]1C[C@H](N)CCN1c1cnc2c(N3CCCc4ncccc43)n[nH]c2n1` (stereo in doubt) [Compound 25, rel-(2S,4R)-1-(3-(3,4-dihydro-1,5-naphthyridin-1(2H)-yl)-1H-pyrazolo[3,4-b]pyrazin-6-yl)-2-methylpiperidin-4-amine] showed an IC50 of under 1000 nM. The compound `C[C@@H]1C[C@@H](N)CCN1c1cnc2c(N3CCCc4ncccc43)n[nH]c2n1` (stereo in doubt) [Compound 74, rac-(2R,4S)-1-(3-(3,4-dihydro-1,5-naphthyridin-1(2H)-yl)-1H-pyrazolo[3,4-b]pyrazin-6-yl)-2-methylpiperidin-4-amine] returned an IC50 of under 1000 nM. The same measure for `N[C@@H]1CCC[C@]12CCN(c1cnc3c(N4CCCc5ncccc54)n[nH]c3n1)C2` (stereo in doubt) [Compound 204, rel-(5R,6R)-2-(3-(3,4-dihydro-1,5-naphthyridin-1(2H)-yl)-1H-pyrazolo[3,4-b]pyrazin-6-yl)-2-azaspiro[4.4]nonan-6-amine]: 1000 to 10000 nM; for `N[C@H]1CCC[C@@]12CCN(c1cnc3c(N4CCCc5ncccc54)n[nH]c3n1)C2` (stereo in doubt) [Compound 205, rel-(5S,6S)-2-(3-(3,4-dihydro-1,5-naphthyridin-1(2H)-yl)-1H-pyrazolo[3,4-b]pyrazin-6-yl)-2-azaspiro[4.4]nonan-6-amine]: 1000 to 10000 nM. The same measure for `CC1CCN(c2n[nH]c3nc(N4CCC5(CC4)CO[C@@H](C)[C@H]5N)cnc23)c2ccc(C(N)=O)nc21` (stereo in doubt) [Compound 264, (8S)-5-{6-[(3S,4S)-4-amino-3-methyl-2-oxa-8-azaspiro[4.5]decan-8-yl]-1H-pyrazolo[3,4-b]pyrazin-3-yl}-8-methyl-5,6,7,8-tetrahydro-1,5-naphthyridine-2-carboxamide]: under 1000 nM; for `CC1CCN(c2n[nH]c3nc(N4CCC5(CC4)CO[C@@H](C)[C@H]5N)cnc23)c2ccc(C(N)=O)nc21` (stereo in doubt) [Compound 265, (8R)-5-{6-[(3S,4S)-4-amino-3-methyl-2-oxa-8-azaspiro[4.5]decan-8-yl]-1H-pyrazolo[3,4-b]pyrazin-3-yl}-8-methyl-5,6,7,8-tetrahydro-1,5-naphthyridine-2-carboxamide]: under 1000 nM; for `COCCNC(=O)c1ccc2c(n1)C(C)CCN2c1n[nH]c2nc(N3CCC4(CC3)CO[C@@H](C)[C@H]4N)cnc12` (stereo in doubt) [Compound 437, (8S)-5-(6-[(3S,4S)-4-amino-3-methyl-2-oxa-8-azaspiro[4.5]decan-8-yl]-1H-pyrazolo[3,4-b]pyrazin-3-yl)-N-(2-methoxyethyl)-8-methyl-5,6,7,8-tetrahydro-1,5-naphthyridine-2-carboxamide hydrochloride]: under 1000 nM.
